The test concerns Bcl-XL (Homo sapiens). Kind of test: Binding affinity to Bcl-XL by fluorescence polarization assay. Background: In fluorescence polarisation assays a small probe gives low polarisation when free and higher when bound to something large.

Active and inactive are the calls of the source. The rule behind the calls is not given here.

Regarding `CCC(C)C1CN(C(=O)c2cc(Cc3ccccc3)c(-c3nc(CC(C)C)co3)nn2)CCN1C` (centres undefined), the result was Active.

Consider `CC(C)Cc1cc(C(=O)N2CCC[C@@H](OCc3ccccc3)C2)nnc1-c1nc(C(C)C)co1`, for which the outcome was Active.

For `CC(C)Cc1cc(-c2nc(C(C)C)co2)nnc1-c1nc(C(C)C)co1`, the outcome was Active.

As to `CC(C)c1coc(-c2cc(CC3CCCCC3)c(-c3nc(C(C)C)co3)nn2)n1`, the outcome was Active.

These data come from ChEMBL document CHEMBL1140028, “Heterocyclic alpha-helix mimetics for targeting protein-protein interactions” (Bioorg Med Chem Lett, 2007).
